Test results reported in ChEMBL document CHEMBL4052701, “Bioactive new withanolides from the cultured soft coral Sinularia brassica” (Bioorg Med Chem Lett, 2017).

What was measured:
[1] = tested on: HT-29; assay: Cytotoxicity against human HT-29 cells incubated for 72 hrs by alamar blue assay; assay type: functional, cell-based; conditions: HT-29, 72 h
[2] = tested on: P388; assay: Cytotoxicity against mouse P388 cells incubated for 72 hrs by alamar blue assay; assay type: functional, cell-based; conditions: P388, 72 h
[3] = tested on: K562; assay: Cytotoxicity against human K562 cells incubated for 72 hrs by alamar blue assay; assay type: functional, cell-based; conditions: K562, 72 h
[4] = tested on: Neutrophil; assay: Antiinflammatory activity in human neutrophils assessed as inhibition of fMLP/CB-induced superoxide anion generation by measuring superoxide […] dismutase inhibitable reduction of ferricytochrome c incubated for 5 mins; assay type: functional, cell-based
[5] = tested on: Neutrophil; assay: Antiinflammatory activity in human neutrophils assessed as inhibition of fMLP/CB-induced superoxide anion generation by measuring superoxide […] dismutase inhibitable reduction of ferricytochrome c at 10 uM incubated for 5 mins; assay type: functional
[6] = tested on: Neutrophil; assay: Antiinflammatory activity in human neutrophils assessed as inhibition of fMLP/CB-induced elastase release incubated for 5 mins in presence of MeO-Suc-Ala-Ala-Pro-Val-p-nitroanilide; assay type: functional, cell-based
[7] = tested on: MOLT-4; assay: Cytotoxicity against human MOLT4 cells incubated for 72 hrs by alamar blue assay; assay type: functional, cell-based; conditions: MOLT-4, 72 h
[8] = tested on: Neutrophil; assay: Antiinflammatory activity in human neutrophils assessed as inhibition of fMLP/CB-induced elastase release at 10 uM incubated for 5 mins in presence of MeO-Suc-Ala-Ala-Pro-Val-p-nitroanilide; assay type: functional

| Compound | IC50 [1] [µM] | IC50 [2] [µM] | IC50 [3] [µM] | IC50 [4] [µM] | inhibition at 10 µM [5] [%] | IC50 [6] [µM] | IC50 [7] [µM] | inhibition at 10 µM [8] [%] |
| --- | --- | --- | --- | --- | --- | --- | --- | --- |
| C[C@H]1[C@H]2[C@H](C[C@H]3[C@@H]4CCC5=CC(=O)C=C[C@]5(C)[C@H]4CC[C@]23C)O[C@@]2(OC(=O)[C@@H](C)[C@H]2C)[C@H]1O | 20.5 | 18.3 | 17.4 | > 10 | 34.3 | > 10 | 13.7 | 11.4 |
| C[C@@H]1[C@H]([C@H]2OC(=O)[C@@H](C)[C@H]2C)O[C@H]2C[C@H]3[C@@H]4CCC5=CC(=O)C=C[C@]5(C)[C@H]4CC[C@]3(C)[C@@H]12 | 18.7 | 29.9 | 8.7 | 3.5 | 87.7 | 1.4 | 12.1 | 114 |
| C[C@@H]([C@H]1CC[C@H]2[C@@H]3CCC4=CC(=O)C=C[C@]4(C)[C@H]3CC[C@]12C)[C@H]1C[C@H](C)[C@@H](C)C(=O)O1 | > 40 | > 40 | > 40 | > 10 | 26.3 | > 10 | > 40 | 25 |
| C[C@H]1[C@H]([C@@]2(O)O[C@H]3C[C@H]4[C@@H]5CCC6=CC(=O)C=C[C@]6(C)[C@H]5CC[C@]4(C)[C@H]3[C@@H]2C)OC(=O)[C@@H]1C | 11.2 | 18.7 | 12.6 | > 10 | 32.1 | > 10 | 17.2 | 9.5 |
| C[C@H]1[C@H]2[C@H](C[C@H]3[C@@H]4CCC5=CC(=O)C=C[C@]5(C)[C@H]4CC[C@]23C)O[C@]2(OC(=O)[C@H](C)[C@H]2C)[C@H]1O | 24.4 | 39.8 | 29.7 | > 10 | 14.4 | > 10 | 28.6 | 32.4 |
| C[C@@H]1C(=O)[C@@]2(OC(=O)[C@H](C)[C@H]2C)O[C@H]2C[C@H]3[C@@H]4CCC5=CC(=O)C=C[C@]5(C)[C@H]4CC[C@]3(C)[C@H]21 | > 40 | > 40 | > 40 | > 10 | 17.3 | > 10 | > 40 | 12.5 |
| O=c1[nH]cc(F)c(=O)[nH]1 [FLUOROURACIL] | 7.2 | 5.8 | 30.5 | – | – | – | 6.2 | – |
| CC[C@H](Nc1ncnc2[nH]cnc12)c1nc2cccc(F)c2c(=O)n1-c1ccccc1 [IDELALISIB] | – | – | – | 0.07 | 103 | 0.3 | – | 99.6 |
